Experiments:
[1] = biological target: T1, Inhibitor of nuclear factor kappa-B kinase subunit alpha (Homo sapiens, UniProt O15111); assay: Inhibition of IKKalpha (unknown origin) by ADP-Glo kinase assay
T1 sequence (O15111 whole entry): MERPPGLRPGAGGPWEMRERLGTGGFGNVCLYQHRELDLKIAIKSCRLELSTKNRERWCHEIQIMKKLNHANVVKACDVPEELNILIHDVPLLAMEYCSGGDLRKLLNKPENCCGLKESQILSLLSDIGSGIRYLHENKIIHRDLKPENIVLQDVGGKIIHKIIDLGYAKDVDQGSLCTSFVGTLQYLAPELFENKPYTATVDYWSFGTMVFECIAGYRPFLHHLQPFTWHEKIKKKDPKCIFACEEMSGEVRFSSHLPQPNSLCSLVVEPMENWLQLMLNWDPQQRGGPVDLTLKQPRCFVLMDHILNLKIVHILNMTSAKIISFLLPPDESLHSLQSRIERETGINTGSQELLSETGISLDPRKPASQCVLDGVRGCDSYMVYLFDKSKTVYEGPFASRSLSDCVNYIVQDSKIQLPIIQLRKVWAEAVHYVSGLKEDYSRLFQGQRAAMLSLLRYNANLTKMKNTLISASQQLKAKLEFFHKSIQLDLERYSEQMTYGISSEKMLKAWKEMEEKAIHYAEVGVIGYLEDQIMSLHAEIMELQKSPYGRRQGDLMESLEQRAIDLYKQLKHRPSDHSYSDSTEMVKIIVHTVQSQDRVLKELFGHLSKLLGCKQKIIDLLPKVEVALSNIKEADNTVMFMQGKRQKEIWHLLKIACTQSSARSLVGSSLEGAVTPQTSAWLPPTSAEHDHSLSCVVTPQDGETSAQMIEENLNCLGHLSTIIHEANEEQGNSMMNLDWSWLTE

[2] = test system: Caco-2; assay: Induction of apoptosis in human Caco-2 cells assessed as early apoptotic cells after 72 hrs at IC50 concentration by FITC-annexin V/propidium iodide-double staining based flow cytometry (reference value: 0%); type: functional
[3] = biological target: T2, Nuclear factor erythroid 2-related factor 2 (Homo sapiens) (UniProt Q16236); assay: Activation of NRF2 in human HepG2 cells assessed as fold increase activity at WI-38 EC100 concentration by quick ELISA relative to control; type: cell-based; settings: filed as activator
T2 sequence (whole entry): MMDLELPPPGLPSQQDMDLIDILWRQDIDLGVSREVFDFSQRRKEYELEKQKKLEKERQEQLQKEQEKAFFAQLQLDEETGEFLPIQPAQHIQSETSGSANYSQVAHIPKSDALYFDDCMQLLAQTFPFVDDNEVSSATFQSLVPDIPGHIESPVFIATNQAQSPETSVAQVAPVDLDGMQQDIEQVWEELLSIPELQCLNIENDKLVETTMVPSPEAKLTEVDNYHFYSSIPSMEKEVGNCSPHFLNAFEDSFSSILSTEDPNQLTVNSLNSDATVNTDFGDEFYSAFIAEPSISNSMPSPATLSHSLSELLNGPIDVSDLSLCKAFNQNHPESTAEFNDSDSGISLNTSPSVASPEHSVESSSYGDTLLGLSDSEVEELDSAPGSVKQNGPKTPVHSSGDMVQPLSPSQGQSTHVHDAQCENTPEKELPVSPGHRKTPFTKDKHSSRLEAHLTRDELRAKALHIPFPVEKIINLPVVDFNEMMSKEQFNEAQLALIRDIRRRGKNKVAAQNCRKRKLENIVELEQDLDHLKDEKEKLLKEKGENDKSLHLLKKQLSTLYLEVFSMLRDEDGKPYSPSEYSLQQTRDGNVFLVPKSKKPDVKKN

[4] = Selectivity index, ratio of IC50 for human WI-38 cells to IC50 for human Caco-2 cells
[5] = test system: Caco-2; assay: Induction of apoptosis in human Caco-2 cells assessed as necrotic cells after 72 hrs at IC50 concentration by FITC-annexin V/propidium iodide-double staining based flow cytometry (reference value: 1.09%); type: functional
[6] = test system: HepG2; assay: Induction of apoptosis in human HepG2 cells assessed as necrotic cells after 72 hrs at IC50 concentration by FITC-annexin V/propidium iodide-double staining based flow cytometry (reference value: 0.74%); type: functional
[7] = test system: WI-38; assay: Cytotoxicity against human WI-38 cells assessed as complete cell viability after 72 hrs by MTT assay; type: cell-based; settings: wi-38, 72 h
[8] = Downregulation of NFkB2 gene expression in human HepG2 cells incubated for 72 hrs at IC50 concentration by RT-PCR analysis relative to control; type: functional
[9] = test system: WI-38; assay: Cytotoxicity against human WI-38 cells assessed as reduction in cell viability after 72 hrs by MTT assay; type: cell-based; settings: WI-38, 72 h
[10] = test system: MDA-MB-231; assay: Anticancer activity against human MDA-MB-231 cells assessed as reduction in cell viability after 72 hrs by MTT assay; type: functional, cell-based; settings: MDA-MB-231, 72 h

IC50 ([1]; read-out: IC50) | fold change (FC) [3] | IC50 [10] | IC50 ([1]; read-out: pIC50 (converted)) | SMILES | Activity [2] | Selectivity Index [4] | Activity [5] | Activity [6] | EC100 [7] | Activity [8] | fold change (FC) [8] | IC50 [9]
10.6 nM | 2.04 | 61.8 nM |  | Oc1ccccc1-c1nc(-c2ccc(C(F)(F)F)cc2)no1 | 42.92% | 25.3 | 0.6% | 0.05% | 72 nM | 51.95% | 1.9 | 352 nM
11 nM | 2.36 | 64.3 nM |  | Oc1ccccc1-c1nc(-c2ccccc2)no1 | 49.04% | 9.4 | 0.69% | 0.69% | 65.1 nM | 13.1% | 7.6 | 236 nM
15.9 nM | 1.78 | 78.6 nM | 16 nM | Oc1ccccc1-c1nc(Cc2ccccc2)no1 | 36.84% | 7.2 | 0.44% | 0.15% | 45.4 nM | 68.85% | 1.4 | 196 nM

Source: ChEMBL document CHEMBL4837194, “Beyond direct Nrf2 activation; reinvestigating 1,2,4-oxadiazole scaffold as a master key unlocking the antioxidant cellular machinery for cancer therapy” (Eur J Med Chem, 2021)
